From US4393225A, “AI-77 Compounds and pharmaceutically acceptable salts thereof” (Asahi Kasei Kogyo Kabushiki Kaisha, priority 1979, dated 1983)
Where two headings read alike, the source gives them in different places.

System: ulcer
Test: Anti-ulcer test (restraint and water immersion ulcer in rats, i.p.)
Type: in vivo, Male Wistar rats
Conditions: Rattus norvegicus, ip, read-out: % Inhibition of Ulcer; for inhibition in vivo at 25 mg/kg: 25 mg/kg i.p.
How it was run: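 Male Wistar rats (~150 g), fasted 24 h, dosed i.p. with compound in physiological saline; 1 h later restrained and immersed to xiphisternum in 21 °C water for 6 h. Stomachs examined microscopically, ulcers scored 0–3, and percent inhibition calculated.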

SMILES | inhibition in vivo at 50 mg/kg (50 mg/kg i.p.) [%] | other results
CCNC1CC(=O)OC1C(OC(C)=O)C(=O)NC(CC(C)C)C1Cc2cccc(OC(C)=O)c2C(=O)O1 (stereo not drawn) [IIIa-20-1] |  | inhibition in vivo at 50 mg/kg: 56%
CCCCOC(C(=O)NC(CC(C)C)C1Cc2cccc(O)c2C(=O)O1)C1OC(=O)CC1NC(C)=O (stereo not drawn) [IIIa-8-1] | 56 | 
CC(C)=CCNC1CC(=O)OC1C(O)C(=O)NC(CC(C)C)C1Cc2cccc(O)c2C(=O)O1 (stereo not drawn) [IIIa-18-70] | 94 | 
CCCCC(=O)NC1CC(=O)OC1C(O)C(=O)NC(CC(C)C)C1Cc2cccc(O)c2C(=O)O1 (stereo not drawn) [IIIa-1-6] |  | inhibition in vivo at 50 mg/kg: 66%
CC(=O)NC(CC(N)=O)C(O)C(O)C(=O)NC(CC(C)C)C1Cc2cccc(OC(C)=O)c2C(=O)O1 (stereo not drawn) [VII-31-1] |  | inhibition in vivo at 25 mg/kg: 89%
CCCCCCCCCCCCCCCCCC(=O)NC1CC(=O)OC1C(O)C(=O)NC(CC(C)C)C1Cc2cccc(OCCCCCCC)c2C(=O)O1 (stereo not drawn) [IIIa-5-6] | 33 | 
CNC1CC(=O)OC1C(O)C(=O)NC(CC(C)C)C1Cc2cccc(OC(C)=O)c2C(=O)O1 (stereo not drawn) [IIIa-30-1] | 78 | 
CC(C)CC(NC(=O)C(O)C1OC(=O)CC1N)C1Cc2cccc(OCC3CCCCC3)c2C(=O)O1 (stereo not drawn) [IIIa-13-11] | 78 | 
CCCC(=O)Oc1cccc2c1C(=O)OC(C(CC(C)C)NC(=O)C(OCC)C(O)C(N)CC(N)=O)C2 (stereo not drawn) [VII-9-4] |  | inhibition in vivo at 25 mg/kg: 78%
C/C=C/C(=O)NC1CC(=O)OC1C(O)C(=O)NC(CC(C)C)C1Cc2cccc(OCC)c2C(=O)O1 (stereo not drawn) [IIIa-5-53] | 33 | 
CCCCCCCCCCCC(=O)Oc1cccc2c1C(=O)OC(C(CC(C)C)NC(=O)C(O)C1C=CC(=O)O1)C2 (stereo not drawn) [IVa-3-8] | 33 | 
CCCCNC(CC(=O)O)C(O)C(OC(=O)CCC)C(=N)NC(CC(C)C)C1Cc2cccc(O)c2C(=O)O1 (stereo not drawn) [Vb-11-3] | 72 | 
CCOc1cccc2c1C(=O)OC(C(CC(C)C)NC(=O)C(O)C(O)C(CC(N)=O)NC)C2 (stereo not drawn) [VII-23-1] |  | inhibition in vivo at 25 mg/kg: 89%
CC(C)=CC(=O)NC1CC(=O)OC1C(O)C(=O)NC(CC(C)C)C1Cc2cccc(O)c2C(=O)O1 (stereo not drawn) [IIIa-1-81] | 66 | 
CCOc1cccc2c1C(=O)OC(C(CC(C)C)NC(=N)C(OC(=O)CC)C(O)C(N)CC(=O)O)C2 (stereo not drawn) [Vb-6-3] | 66 | 
CCCCCCCCCCCCCCCCCC(=O)Oc1cccc2c1C(=O)OC(C(CC(C)C)NC(=O)C(O)C(O)C(N)CC(N)=O)C2 (stereo not drawn) [VII-4-3] |  | inhibition in vivo at 25 mg/kg: 78%
CNC(CC(N)=O)C(O)C(O)C(=O)NC(CC(C)C)C1Cc2cccc(OC(C)=O)c2C(=O)O1 (stereo not drawn) [VII-22-1] |  | inhibition in vivo at 25 mg/kg: 78%
CC(C)CC(NC(=O)C(O)C1OC(=O)CC1N)C1Cc2cccc(OCCc3ccccc3)c2C(=O)O1 (stereo not drawn) [IIIa-13-12] | 89 | 
CCNC1CC(=O)OC1C(O)C(=O)NC(CC(C)C)C1Cc2cccc(OCC(C)C)c2C(=O)O1 (stereo not drawn) [IIIa-22-10] | 83 | 
CC(C)CC(NC(=O)C(O)C1OC(=O)CC1NC(=O)Cn1cnnn1)C1Cc2cccc(O)c2C(=O)O1 (stereo not drawn) [IIIa-1-75] | 66 | 

SMILES | inhibition in vivo at 50 mg/kg (50 mg/kg i.p.) [%] | other results
Cc1ccc(CNC(=O)CC(N)C(O)C(O)C(=O)NC(CC(C)C)C2Cc3cccc(O)c3C(=O)O2)cc1 (stereo not drawn) [VII-1-22] |  | inhibition in vivo at 25 mg/kg: 83%
CCCCCOC(=O)c1ccc(C(=O)NC2CC(=O)OC2C(O)C(=O)NC(CC(C)C)C2Cc3cccc(O)c3C(=O)O2)cc1 (stereo not drawn) [IIIa-1-51] | 44 | 
CCC(=O)CNC(=O)CC(N)C(O)C(O)C(=O)NC(CC(C)C)C1Cc2cccc(O)c2C(=O)O1 (stereo not drawn) [VII-1-21] |  | inhibition in vivo at 25 mg/kg: 100%
CC(C)CC(NC(=O)C(O)C1C=CC(=O)O1)C1Cc2cccc(OCc3ccccc3)c2C(=O)O1 (stereo not drawn) [IVa-4-9] | 33 | 
CNC(CC(=O)O)C(O)C(O)C(=N)NC(CC(C)C)C1Cc2cccc(O)c2C(=O)O1 (stereo not drawn) [Vb-19-1] | 100 | 
CC(C)CC(NC(=O)C(O)C1OC(=O)CC1N)C1Cc2cccc(OCCc3ccc4ccccc4c3)c2C(=O)O1 (stereo not drawn) [IIIa-13-18] | 72 | 
CCCCC(=O)Oc1cccc2c1C(=O)OC(C(CC(C)C)NC(=O)C(O)C1C=CC(=O)O1)C2 (stereo not drawn) [IVa-3-4] | 33 | 
CCOc1cccc2c1C(=O)OC(C(CC(C)C)NC(=O)C(O)C1OC(=O)CC1NC(=O)c1ccc(OC(C)=O)cc1)C2 (stereo not drawn) [IIIa-5-35] | 44 | 
CC(=O)Oc1cccc2c1C(=O)OC(C(CC(C)C)NC(=O)C(OC(C)=O)C1OC(=O)CC1NCC(Cl)(Cl)Cl)C2 (stereo not drawn) [IIIa-20-10] | 56 | 
CC(C)CC(NC(=O)C(O)C(O)C(N)CC(=O)NCCC1CCCCO1)C1Cc2cccc(O)c2C(=O)O1 (stereo not drawn) [VII-1-16] |  | inhibition in vivo at 25 mg/kg: 94%
CCCCCc1ccc(COc2cccc3c2C(=O)OC(C(CC(C)C)NC(=O)C(O)C2OC(=O)CC2NC(=O)CCC)C3)cc1 (stereo not drawn) [IIIa-5-119] | 33 | 
CC(C)CC(NC(=O)C(O)C(O)C(N)CC(=O)NCc1cccc(Cl)c1)C1Cc2cccc(O)c2C(=O)O1 (stereo not drawn) [VII-1-20] |  | inhibition in vivo at 25 mg/kg: 94%
CCOc1cccc2c1C(=O)OC(C(CC(C)C)NC(=O)C(O)C1OC(=O)CC1NC)C2 (stereo not drawn) [IIIa-31-2] | 94 | 
CCNC1CC(=O)OC1C(O)C(=O)NC(CC(C)C)C1Cc2cccc(OC(C)=O)c2C(=O)O1 (stereo not drawn) [IIIa-21-1] | 78 | 
CC(C)CC(NC(=O)C(O)C1C=CC(=O)O1)C1Cc2cccc(OCCC3CCCCO3)c2C(=O)O1 (stereo not drawn) [IVa-4-15] | 44 | 
CCCCCCCCCCCCCCCCCC(=O)Oc1cccc2c1C(=O)OC(C(CC(C)C)NC(=O)C(OC)C1OC(=O)CC1N)C2 (stereo not drawn) [IIIa-17-2] | 44 | 
CCCCCCCCC=CCCCCCCCC(=O)NC1CC(=O)OC1C(OCC)C(=O)NC(CC(C)C)C1Cc2cccc(OCC)c2C(=O)O1 (stereo not drawn) [IIIa-7-5] | 22 | 
CSC(C)(C)CC(=O)NC1CC(=O)OC1C(O)C(=O)NC(CC(C)C)C1Cc2cccc(O)c2C(=O)O1 (stereo not drawn) [IIIa-1-82] |  | inhibition in vivo at 50 mg/kg: 66%
CC(C)CC(NC(=O)C(O)C1OC(=O)CC1NC(=O)C=Cc1ccoc1)C1Cc2cccc(O)c2C(=O)O1 (stereo not drawn) [IIIa-1-57] | 56 | 
CCCCCCCCCCCCCCCCCC(=O)NC1CC(=O)OC1C(O)C(=O)NC(CC(C)C)C1Cc2cccc(OC(C)=O)c2C(=O)O1 (stereo not drawn) [IIIa-4-3] | 33 | 

SMILES | inhibition in vivo at 50 mg/kg (50 mg/kg i.p.) [%] | other results
COc1ccc(C(=O)Oc2cccc3c2C(=O)OC(C(CC(C)C)NC(=O)C(O)C2C=CC(=O)O2)C3)cc1 (stereo not drawn) [IVa-3-16] | 33 | 
CC(=O)OC(C(=N)NC(CC(C)C)C1Cc2cccc(O)c2C(=O)O1)C(O)C(CC(=O)O)NCCC(C)C (stereo not drawn) [Vb-11-2] | 66 | 
COC(C)CC(=O)Oc1cccc2c1C(=O)OC(C(CC(C)C)NC(=O)C(O)C1OC(=O)CC1N)C2 (stereo not drawn) [IIIa-12-6] | 78 | 
C/C=C/C(=O)NC1CC(=O)OC1C(O)C(=O)NC(CC(C)C)C1Cc2cccc(O)c2C(=O)O1 (stereo not drawn) [IIIa-1-54] | 66 | 
CCCCOc1cccc2c1C(=O)OC(C(CC(C)C)NC(=O)C(OCCCC)C(O)C(CC(N)=O)NC)C2 (stereo not drawn) [VII-25-3] |  | inhibition in vivo at 25 mg/kg: 56%
CC(C)CC(NC(=O)C(O)C1OC(=O)CC1N)C1Cc2cccc(OC(=O)C(C)C)c2C(=O)O1 (stereo not drawn) [IIIa-12-2] | 78 | 
CCCCCCCCCCCCCCCCCCOc1cccc2c1C(=O)OC(C(CC(C)C)NC(=O)C(O)C1C=CC(=O)O1)C2 (stereo not drawn) [IVa-4-5] | 33 | 
CCCCCCCCCCCCCCCCCC(=O)NC(CC(=O)NCC)C(O)C(O)C(=O)NC(CC(C)C)C1Cc2cccc(O)c2C(=O)O1 (stereo not drawn) [VII-28-4] |  | inhibition in vivo at 25 mg/kg: 66%
CCOc1cccc2c1C(=O)OC(C(CC(C)C)NC(=O)C(O)C1OC(=O)CC1NC(=O)c1ccc(C(C)C)cc1)C2 (stereo not drawn) [IIIa-5-67] | 44 | 
CC(C)CC(NC(=O)C(O)C1OC(=O)CC1N)C1Cc2cccc(OCc3ccccc3)c2C(=O)O1 (stereo not drawn) [IIIa-13-9] | 89 | 
CC(=O)Oc1ccc(C(=O)NC2CC(=O)OC2C(O)C(=O)NC(CC(C)C)C2Cc3cccc(O)c3C(=O)O2)cc1 (stereo not drawn) [IIIa-1-34] | 66 | 
CCCCCCCCCCCCCCCCCCNC1CC(=O)OC1C(OCCCC)C(=O)NC(CC(C)C)C1Cc2cccc(OC(C)=O)c2C(=O)O1 (stereo not drawn) [IIIa-26-3] | 44 | 
CCC(=O)OC(C(=N)NC(CC(C)C)C1Cc2cccc(O)c2C(=O)O1)C(O)C(N)CC(=O)O (stereo not drawn) [Vb-2-1] | 66 | 
CCNC1CC(=O)OC1C(O)C(=O)NC(CC(C)C)C1Cc2cccc(OC(=O)CC)c2C(=O)O1 (stereo not drawn) [IIIa-21-9] | 66 | 
CC(=O)Oc1cccc2c1C(=O)OC(C(CC(C)C)NC(=O)C(OC(=O)C(C)C)C(O)C(N)CC(N)=O)C2 (stereo not drawn) [VII-3-1] |  | inhibition in vivo at 25 mg/kg: 78%
CCCCCC(=O)OC(C)CCNC(=O)CC(N)C(O)C(O)C(=O)NC(CC(C)C)C1Cc2cccc(O)c2C(=O)O1 (stereo not drawn) [VII-1-29] |  | inhibition in vivo at 25 mg/kg: 94%
Cc1ccc(CCNC(=O)CC(N)C(O)C(O)C(=O)NC(CC(C)C)C2Cc3cccc(O)c3C(=O)O2)cc1 (stereo not drawn) [VII-1-35] |  | inhibition in vivo at 25 mg/kg: 83%
CCCCNC(=O)CC(N)C(O)C(OCCC)C(=O)NC(CC(C)C)C1Cc2cccc(OCC)c2C(=O)O1 (stereo not drawn) [VII-7-4] |  | inhibition in vivo at 25 mg/kg: 66%
CCOc1cccc2c1C(=O)OC(C(CC(C)C)NC(=O)C(O)C1OC(=O)CC1NC(=O)c1cocc1C(=O)O)C2 (stereo not drawn) [IIIa-5-59] | 44 | 
CCCCNC1CC(=O)OC1C(OCCCC)C(=O)NC(CC(C)C)C1Cc2cccc(OC)c2C(=O)O1 (stereo not drawn) [IIIa-24-10] | 56 | 
